≈ marks a conversion by molar mass, not a printed value. Where a SMILES comes first, the peptide text is derived from it. Bridges are numbered along the chain shown (N, C = ends). Roman numbers before positions name the chains, in order. [ ]: non-standard residue; d: D form. Thr(ol) = C[C@@H](O)[C@H](N)CO; Tle = CC(C)(C)[C@H](N)C(=O)O; NMeV = CN[C@H](C(=O)O)C(C)C; Hiv = CC(C)[C@H](O)C(=O)O; dDab = NCC[C@@H](N)C(=O)O; hSer = N[C@@H](CCO)C(=O)O; Orn = NCCC[C@H](N)C(=O)O; Dab = NCC[C@H](N)C(=O)O; Dap = NC[C@H](N)C(=O)O
Assays:
Assay type in all cases: cell-based
[1] = test system: Acinetobacter baumannii 872842; conditions: 872842
Procedure, shortened: (§1)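 Broth microdilution per CLSI; MH-II (cation-adjusted) + 0.002% P-80 final; ~10^6 CFU/mL inoculum; 2-fold peptide series; 35° C, 18-20 h; MIC = no visible growth, μg/mL.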

[2] = test system: Acinetobacter baumannii DSM 30008; conditions: DSM 30008
Procedure, shortened: as §1

[3] = test system: Enterobacter cloacae 848840; conditions: 848840
Procedure, shortened: as §1

Escherichia coli 926415 = conditions: 926415
Procedure, shortened: as §1

[4] = test system: Escherichia coli ATCC 25922; conditions: ATCC 25922
Procedure, shortened: as §1

[5] = test system: Klebsiella pneumoniae 968733; conditions: 968733
Procedure, shortened: as §1

[6] = test system: Klebsiella pneumoniae SSI #3010; conditions: SSI #3010
Procedure, shortened: as §1

[7] = test system: Pseudomonas aeruginosa ATCC 27853; conditions: ATCC 27853
Procedure, shortened: as §1

[8] = test system: human red blood cells (hRBC); experiment: Hemolysis; conditions: red cells of human, 1 h, 200
Procedure, shortened: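 Read-out is supernatant absorbance at 540 nm, normalised to full lysis by 2% Triton X-100 and zero lysis by PBS with 10% water. Peptides (200 μg/mL) were exposed to 20% v/v washed human erythrocytes at 37° C for 1 h under shaking.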

SMILES | MIC [1] [µg/mL] | MIC [2] [µg/mL] | MIC [3] [µg/mL] | MIC (Escherichia coli 926415) [µg/mL] | MIC [4] [µg/mL] | MIC [5] [µg/mL] | MIC [6] [µg/mL] | MIC [7] [µg/mL] | Hemolysis at 200 μg/mL [8] [%] | Acinetobacter baumannii DSM 30008 MIC [2] [µg/mL] | Escherichia coli ATCC 25922 MIC [4] [µg/mL] | Klebsiella pneumoniae SSI #3010 MIC [6] [µg/mL] | Pseudomonas aeruginosa ATCC 27853 MIC [7] [µg/mL]
CC(C)C[C@@H]1NC(=O)[C@@H](CC(C)C)NC(=O)[C@H](CCN)NC(=O)[C@@H](NC(=O)[C@H](CN)NC(=O)[C@@H](NC(=O)[C@H](CCN)NC(=O)CC[C@@H]2NC(=O)[C@H](CN)NC(=O)[C@H](Cc3ccc(O)cc3)NC(=O)[C@@H](NC(=O)[C@@H](O)C(C)C)CSSC[C@@H](C(=O)N[C@H](CO)[C@@H](C)O)NC(=O)[C@H](C(C)(C)C)NC(=O)[C@H](CO)NC(=O)[C@H](Cc3c[nH]c4ccccc34)NC(=O)[C@H](CCO)NC(=O)[C@@H](CCN)NC2=O)[C@@H](C)O)CCNC(=O)[C@H]([C@@H](C)O)NC(=O)[C@H](CCN)NC(=O)[C@H](CCN)NC1=O [Ex. 112] (I: H-[Hiv]CY[Dap]E[dDab][hSer]WS[Tle]C[Thr(ol)] / II: [Dab]T[Dap][Dab][Dab][dL]L[Dab][Dab]T; disulfide I:2-I:11; amide I:5-II:N; lactam II:4-II:C) | 0.0625 (≈ 0.0263 µM) | 0.0625 (≈ 0.0263 µM) | 0.125 (≈ 0.0527 µM) | 0.0625 (≈ 0.0263 µM) | 0.0625 (≈ 0.0263 µM) | 0.125 (≈ 0.0527 µM) | 0.0625 (≈ 0.0263 µM) | 0.125 (≈ 0.0527 µM) | <1 | – | – | – | –
CC(C)C[C@@H]1NC(=O)[C@H](CCN)NC(=O)[C@H](CCN)NC(=O)[C@H](CC(C)C)NC(=O)[C@@H](CC(C)C)NC(=O)[C@H](CCN)NC(=O)[C@@H](NC(=O)[C@@H](CCN)NC(=O)CC[C@@H]2NC(=O)[C@H](CCN)NC(=O)[C@H](Cc3ccc(O)cc3)NC(=O)[C@@H](NC(=O)[C@@H](O)C(C)C)CSSC[C@@H](C(=O)N[C@H](CO)[C@@H](C)O)NC(=O)[C@H](C(C)(C)C)NC(=O)[C@H](CO)NC(=O)[C@H](Cc3c[nH]c4ccccc34)NC(=O)[C@H](CCO)NC(=O)[C@@H](CCN)NC2=O)CCNC1=O [Ex. 127] (I: H-[Hiv]CY[Dab]E[dDab][hSer]WS[Tle]C[Thr(ol)] / II: [dDab][Dab][Dab][dL]L[Dab][Dab]L; disulfide I:2-I:11; amide I:5-II:N; lactam II:2-II:C) | 0.0625 (≈ 0.0283 µM) | 0.0625 (≈ 0.0283 µM) | 0.125 (≈ 0.0565 µM) | 0.125 (≈ 0.0565 µM) | 0.0625 (≈ 0.0283 µM) | 0.5 (≈ 0.226 µM) | 0.25 (≈ 0.113 µM) | 0.5 (≈ 0.226 µM) | 2 | – | – | – | –
CC(=O)N[C@H](C(=O)N[C@H]1CSSC[C@@H](C(=O)O)NC(=O)[C@H](C(C)C)NC(=O)[C@H](CO)NC(=O)[C@H](Cc2c[nH]c3ccccc23)NC(=O)[C@H](CO)NC(=O)[C@@H](CCN)NC(=O)[C@H](CCC(=O)N[C@@H](CCN)C(=O)N[C@H](C(=O)N[C@@H](CN)C(=O)N[C@H]2CCNC(=O)[C@H]([C@@H](C)O)NC(=O)[C@H](CCN)NC(=O)[C@H](CCN)NC(=O)[C@H](CC(C)C)NC(=O)[C@@H](CC(C)C)NC(=O)[C@H](CCN)NC2=O)[C@@H](C)O)NC(=O)[C@H](CCN)NC(=O)[C@H](Cc2ccc(O)cc2)NC1=O)C(C)C [Ex. 384] (I: Ac-VCY[Dab]E[dDab]SWSVC-OH / II: [Dab]T[Dap][Dab][Dab][dL]L[Dab][Dab]T; disulfide I:2-I:11; amide I:5-II:N; lactam II:4-II:C) | 2 (≈ 0.865 µM) | – | 2 (≈ 0.865 µM) | 4 (≈ 1.73 µM) | – | >8 | – | – | <1 | 1 | 0.125 | 0.25 | 0.5
CC(=O)N[C@H](C(=O)N[C@H]1CCCNC(=O)[C@@H]([C@H](C)O)NC(=O)[C@H](C(C)(C)C)NC(=O)[C@H](CO)NC(=O)[C@H](Cc2c[nH]c3ccccc23)NC(=O)[C@H](CCO)NC(=O)[C@@H](CCN)NC(=O)[C@H](CCC(=O)N[C@@H](CCN)C(=O)N[C@H](C(=O)N[C@@H](CN)C(=O)N[C@H]2CCNC(=O)[C@H]([C@@H](C)O)NC(=O)[C@H](CCN)NC(=O)[C@H](CCN)NC(=O)[C@H](CC(C)C)NC(=O)[C@@H](CC(C)C)NC(=O)[C@H](CCN)NC2=O)[C@@H](C)O)NC(=O)[C@H](CO)NC(=O)[C@H](Cc2ccc(O)cc2)NC1=O)C(C)C [Ex. 18] (I: Ac-V[Orn]YSE[dDab][hSer]WS[Tle][dT] / II: [Dab]T[Dap][Dab][Dab][dL]L[Dab][Dab]T; lactam I:2-I:C, II:4-II:C; amide I:5-II:N) | 0.25 (≈ 0.108 µM) | 0.0625 (≈ 0.0269 µM) | 0.125 (≈ 0.0539 µM) | 0.25 (≈ 0.108 µM) | 0.0625 (≈ 0.0269 µM) | 0.5 (≈ 0.215 µM) | 0.125 (≈ 0.0539 µM) | 0.25 (≈ 0.108 µM) | 1 | – | – | – | –
CC(=O)N[C@H]1CSSC[C@@H](C(N)=O)NC(=O)[C@H](CO)NC(=O)[C@H](C)NC(=O)[C@H](C(C)(C)C)NC(=O)[C@H](CO)NC(=O)[C@H](Cc2c[nH]c3ccccc23)NC(=O)[C@H](CO)NC(=O)[C@@H](CCN)NC(=O)[C@H](CCC(=O)N[C@@H](CCN)C(=O)N[C@H](C(=O)N[C@@H](CN)C(=O)N[C@H]2CCNC(=O)[C@H]([C@@H](C)O)NC(=O)[C@H](CCN)NC(=O)[C@H](CCN)NC(=O)[C@H](CC(C)C)NC(=O)[C@@H](CC(C)C)NC(=O)[C@H](CCN)NC2=O)[C@@H](C)O)NC(=O)[C@H](CN)NC(=O)[C@H](Cc2ccc(O)cc2)NC(=O)[C@H]([C@@H](C)O)NC(=O)[C@H](C(C)C)NC1=O [Ex. 244] (I: Ac-CVTY[Dap]E[dDab]SWS[Tle]ASC-NH2 / II: [Dab]T[Dap][Dab][Dab][dL]L[Dab][Dab]T; disulfide I:1-I:14; amide I:6-II:N; lactam II:4-II:C) | 0.0625 (≈ 0.0243 µM) | 0.03125 (≈ 0.0122 µM) | 0.0625 (≈ 0.0243 µM) | 0.125 (≈ 0.0486 µM) | 0.03125 (≈ 0.0122 µM) | 0.0625 (≈ 0.0243 µM) | 0.0625 (≈ 0.0243 µM) | 0.25 (≈ 0.0972 µM) | 1 | – | – | – | –
CC(C)C[C@@H]1NC(=O)[C@@H](Cc2ccccc2)NC(=O)[C@H](CCN)NC(=O)[C@@H](NC(=O)[C@H](CCN)NC(=O)[C@@H](NC(=O)[C@H](CCN)NC(=O)CC[C@@H]2NC(=O)[C@H](CCN)NC(=O)[C@H](Cc3ccc(O)cc3)NC(=O)[C@@H](NC(=O)[C@@H](O)C(C)C)CSSC[C@@H](C(=O)N[C@H](CO)[C@@H](C)O)NC(=O)[C@H](C(C)(C)C)NC(=O)[C@H](CO)NC(=O)[C@H](Cc3c[nH]c4ccccc34)NC(=O)[C@H](CCO)NC(=O)[C@@H](CCN)NC2=O)[C@@H](C)O)CCNC(=O)[C@H]([C@@H](C)O)NC(=O)[C@H](CCN)NC(=O)[C@H](CCN)NC1=O [Ex. 61] (I: H-[Hiv]CY[Dab]E[dDab][hSer]WS[Tle]C[Thr(ol)] / II: [Dab]T[Dab][Dab][Dab][dF]L[Dab][Dab]T; disulfide I:2-I:11; amide I:5-II:N; lactam II:4-II:C) | 0.125 (≈ 0.0513 µM) | 0.0625 (≈ 0.0257 µM) | 0.125 (≈ 0.0513 µM) | 0.25 (≈ 0.103 µM) | 0.125 (≈ 0.0513 µM) | 0.125 (≈ 0.0513 µM) | 0.0625 (≈ 0.0257 µM) | 0.125 (≈ 0.0513 µM) | 3 | – | – | – | –
CN[C@H](C(=O)N[C@H]1CSSC[C@@H](C(N)=O)NC(=O)[C@H](C(C)(C)C)NC(=O)[C@H](CO)NC(=O)[C@H](Cc2c[nH]c3ccccc23)NC(=O)[C@H](CCN)NC(=O)[C@@H](CCN)NC(=O)[C@H](CCC(=O)N[C@@H](CCN)C(=O)N[C@H](C(=O)N[C@@H](CN)C(=O)N[C@H]2CCNC(=O)[C@H]([C@@H](C)O)NC(=O)[C@H](CCN)NC(=O)[C@H](CCN)NC(=O)[C@H](CC(C)C)NC(=O)[C@@H](CC(C)C)NC(=O)[C@H](CCN)NC2=O)[C@@H](C)O)NC(=O)[C@H](CN)NC(=O)[C@H](Cc2ccc(O)cc2)NC1=O)C(C)C [Example 9] (I: H-[NMeV]CY[Dap]E[dDab][Dab]WS[Tle]C-NH2 / II: [Dab]T[Dap][Dab][Dab][dL]L[Dab][Dab]T; disulfide I:2-I:11; amide I:5-II:N; lactam II:4-II:C) | 0.125 (≈ 0.0544 µM) | 0.125 (≈ 0.0544 µM) | 0.25 (≈ 0.109 µM) | 1 (≈ 0.435 µM) | 0.125 (≈ 0.0544 µM) | 0.5 (≈ 0.218 µM) | 0.125 (≈ 0.0544 µM) | 0.125 (≈ 0.0544 µM) | <1 | – | – | – | –

From patent US11629171B2, “Beta-hairpin peptidomimetics” (POLYPHOR AG, priority 2017, dated 2023)
